Where a name gives a salt, the structure may show the parent alone.

Assay [1] relates to cultured human mast cells (CHMC). Briefly: CHMC low cell density IgE activation: tryptase assay. The following applies: IgE activation. It is filed as cell-based. The procedure, abridged:
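Fluorogenic readout of tryptase released into the supernatant (30 min substrate incubation, room temperature) measures degranulation. Cells were plated at low density (1000–1500/well, varied by donor) and triggered with anti-IgE for 30 min at 37 °C.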

For assay [2] the test system is unchanged. Briefly: CHMC low cell density ionomycin activation: tryptase assay. It is filed as cell-based. The following applies: read-out: LD Tryptase, CHMC, Iono, 3 pt.
The mark [3] stands for this setting: Homo sapiens, Mast cell, low cell density CHMC, tryptase, 3 pt, read-out: LD Tryptase, CHMC, IgE, 3 pt.
Where [4] appears, read: Homo sapiens, Mast cell, low cell density CHMC, tryptase, 3 pt.
The mark [5] stands for this setting: Homo sapiens, Mast cell, low cell density CHMC, tryptase readout, 3 pt, read-out: LD Tryptase, CHMC, IgE, 3 pt.
The mark [6] stands for this setting: Homo sapiens, Mast cell, low cell density CHMC, tryptase readout, 3 pt.
Setting [7] is: low cell density CHMC, tryptase readout, 8 pt, read-out: LD Tryptase, CHMC, IgE, 8 pt.
The mark [8] stands for this setting: low cell density CHMC, tryptase readout, 3 pt.
Where [9] appears, read: low cell density CHMC, tryptase readout, 3 pt, read-out: LD Tryptase, CHMC, IgE, 3 pt.

For the compound `COC(=O)CN(c1ccc2c(c1)OCCO2)c1nc(Nc2ccc3cc[nH]c3c2)ncc1F` [Compound 420, N4-(3,4-Ethylenedioxyphenyl)-5-fluoro-N2-(indol-6-yl)-N4-(methoxycarbonylmethyl)-2,4-pyrimidinediamine], the IC50 in assay [1] (setting [3]) was less than 10 µM; in assay [2] (setting [4]) it was more than 10 µM.

Regarding `COc1ccc(N(C)c2nc(Nc3cc(C)cc(C)c3)ncc2F)cc1Cl` [Compound 584], the IC50 in assay [1] (Homo sapiens, Mast cell, low cell density CHMC, tryptase release, 3 point, read-out: LD Tryptase, CHMC, IgE, 3 pt) is less than 10 µM; in assay [2] (Homo sapiens, Mast cell, low cell density CHMC, tryptase release, 3 point), more than 10 µM.

On to `Cc1cc(C)cc(Nc2ncc(F)c(Nc3cccc(NC4=NCCN4)c3)n2)c1` [Compound 1095, N2-(3,5-Dimethylphenyl)-5-fluoro-N4-[3-(N-2-imidazolin-2-yl)aminophenyl]-2,4-pyrimidinediamine], for which the IC50 in assay [1] (setting [5]) is less than 10 µM; in assay [2] (setting [6]), more than 10 µM.

As for `CCOC(=O)N1CCN(c2ccc(Nc3ncc(F)c(NC4CCCCC4)n3)cc2)CC1` [Compound 1165, N4-Cyclohexyl-N2-[4-(4-ethoxycarbonylpiperazino)phenyl]-5-fluoro-2,4-pyrimidinediamine], the IC50 in assay [1] (setting [3]) and in assay [2] (setting [4]) was less than 10 µM throughout.

Turning to `O=C1COc2cc(Nc3nc(Nc4cccc(-c5ncco5)c4)ncc3F)ccc2N1` [Compound 220], the IC50 in assay [1] (Homo sapiens, Mast cell, low cell density CHMC, tryptase release, 3 pt, read-out: LD Tryptase, CHMC, IgE, 3 pt) was less than 10 µM; in assay [1] (Homo sapiens, Mast cell, low cell density CHMC, tryptase release, 8 pt, read-out: LD Tryptase, CHMC, IgE, 8 pt), less than 10 µM; in assay [2] (Homo sapiens, Mast cell, low cell density CHMC, tryptase release, 3 pt), more than 10 µM.

For `Fc1cnc(Nc2cccc(N3CCOCC3)c2)nc1NC1CNC1` [Compound 1126], the IC50 is more than 10 µM in assay [1] (setting [3]) and less than 10 µM in assay [2] (setting [4]).

With `CCn1ncc2cc(Nc3ncc(F)c(Nc4ccc(OC)c(Cl)c4)n3)ccc21` [Compound 694], the IC50 in assay [1] (setting [3]) is less than 10 µM; in assay [1] (Homo sapiens, Mast cell, low cell density CHMC, tryptase, 8 pt, read-out: LD Tryptase, CHMC, IgE, 8 pt) it was less than 10 µM; in assay [2] (setting [4]), more than 10 µM.

In the case of `CNC(=O)COc1c(C)cc(Nc2ncc(F)c(Nc3ccc4c(n3)NC(=O)C(C)(C)O4)n2)cc1Cl` [Compound 1037, N2-[3-Chloro-5-methyl-4-(N-methylamino)carbonylmethyleneoxyphenyl]-N4-(2,2-dimethyl-3-oxo-4H-5-pyrid[1,4]oxazin-6-yl)-5-fluoro-2,4-pyrimidinediamine], the IC50 is less than 10 µM in assay [1] (setting [7]) and more than 10 µM in assay [2] (setting [8]).

`Cn1ncc2ccc(Nc3ncc(F)c(Nc4ccc5c(c4)NC(=O)C(C)(C)O5)n3)cc21` [Compound 993, N4-(2,2-Dimethyl-3-oxo-4H-benz[1,4]oxazin-6-yl)-5-fluoro-N2-(1-methylindazol-6-yl)-2,4-pyrimidinediamine p-Toluenesulfonic Acid Salt]: the IC50 in assay [1] (Homo sapiens, Mast cell, low cell density, 3 pt, read-out: LD Tryptase, CHMC, IgE, 3 pt) was less than 10 µM; in assay [1] (Homo sapiens, Mast cell, low cell density, 8 pt, read-out: LD Tryptase, CHMC, IgE, 8 pt) it was less than 10 µM; in assay [2] (Homo sapiens, Mast cell, low cell density, 3 pt) it was less than 10 µM.

Turning to `Cn1ncc2ccc(Nc3ncc(F)c(Nc4ccc5c(n4)NC(=O)C(C)(C)O5)n3)cc21` [Compound 1056, N4-(2,2-Dimethyl-3-oxo-4H-5-pyrid[1,4]oxazin-6-yl)-5-fluoro-N2-[1-methylindazol-6-yl]-2,4-pyrimidinediamine Hydrogen Chloride Salt], the IC50 in assay [1] (setting [9]) is less than 10 µM; in assay [1] (setting [7]) it was less than 10 µM; in assay [2] (setting [8]) it was more than 10 µM.

Consider `Cc1cc(Nc2ncc(F)c(Nc3ccc4c(c3)NC(=O)C(C)(C)O4)n2)cc(Cl)c1OC1CCCC1` [Compound 1018, N2-[3-Chloro-4-cyclopentyloxy-5-methylphenyl]-N4-(2,2-dimethyl-3-oxo-4H-benz[1,4]oxazin-6-yl)-5-fluoro-2,4-pyrimidinediamine], for which the IC50 was less than 10 µM in assay [1] (setting [5]); less than 10 µM in assay [1] (Homo sapiens, Mast cell, low cell density CHMC, tryptase readout, 8 pt, read-out: LD Tryptase, CHMC, IgE, 8 pt); more than 10 µM in assay [2] (setting [6]).

For the compound `CN1C(=O)C(C)(C)Oc2ccc(Nc3nc(Nc4ccc(-c5ncco5)cc4)ncc3F)nc21` [Compound 1013, 5-Fluoro-N2-[4-(oxazol-2-yl)phenyl]-N4-[3-oxo-2,2,4-trimethyl-5-pyrid[1,4]oxazin-6-yl]-2,4-pyrimidinediamine], the IC50 is less than 10 µM in assay [1] (setting [9]) and more than 10 µM in assay [2] (setting [8]).
